According to ChEMBL document CHEMBL1159117, “Anti-invasive and anti-angiogenic activities of naturally occurring dibenzodiazepine BU-4664L and its derivatives” (Bioorg Med Chem Lett, 2010):
Values after ≈ are worked out from the molar mass of the structure shown.

How the values were obtained:
[1] = tested on: HUVEC; assay: Cytotoxicity against HUVEC cells; format: cell-based; conditions: Homo sapiens
[2] = Cytotoxicity against mouse Colon 26-L5 cells at >1 ug/ml; format: functional
[3] = Cytotoxicity against mouse Colon 26-L5 cells; format: functional, cell-based
[4] = tested on: HUVEC; assay: Antiangiogenic activity against HUVEC cells assessed as inhibition of vascular formation at >1 ug/ml after 6 hrs by […]; format: functional, Homo sapiens
[5] = tested on: Renca; assay: Cytotoxicity against mouse Renca cells at >10 ug/ml; format: functional
[6] = Antiinvasive activity against mouse Colon 26-L5 by Matrigel assay; format: functional
[7] = tested on: Renca; assay: Antiinvasive activity against mouse Renca at >1 ug/ml by Matrigel assay; format: functional
[8] = tested on: Renca; assay: Cytotoxicity against mouse Renca cells; format: functional, cell-based
[9] = tested on: HUVEC; assay: Antiangiogenic activity against HUVEC cells assessed as inhibition of vascular formation after 6 hrs by […]; format: functional, cell-based; conditions: Homo sapiens
[10] = Cytotoxicity against HUVEC cells at >10 ug/ml; format: cell-based; conditions: human, read-out: INH
[11] = tested on: Renca; assay: Antiinvasive activity against mouse Renca by Matrigel assay; format: functional, cell-based
[12] = tested on: HUVEC; assay: Antiinvasive activity against HUVEC assessed as inhibition of cell migration after 6 hrs by Matrigel assay; format: functional, cell-based; conditions: Homo sapiens
[13] = Antiinvasive activity against mouse Colon 26-L5 assessed as inhibition of cell migration after 6 hrs by Matrigel assay; format: functional
[14] = target: 72 kDa type IV collagenase (Homo sapiens, UniProt P08253); assay: Inhibition of MMP2
Sequence of 72 kDa type IV collagenase (P08253 whole entry): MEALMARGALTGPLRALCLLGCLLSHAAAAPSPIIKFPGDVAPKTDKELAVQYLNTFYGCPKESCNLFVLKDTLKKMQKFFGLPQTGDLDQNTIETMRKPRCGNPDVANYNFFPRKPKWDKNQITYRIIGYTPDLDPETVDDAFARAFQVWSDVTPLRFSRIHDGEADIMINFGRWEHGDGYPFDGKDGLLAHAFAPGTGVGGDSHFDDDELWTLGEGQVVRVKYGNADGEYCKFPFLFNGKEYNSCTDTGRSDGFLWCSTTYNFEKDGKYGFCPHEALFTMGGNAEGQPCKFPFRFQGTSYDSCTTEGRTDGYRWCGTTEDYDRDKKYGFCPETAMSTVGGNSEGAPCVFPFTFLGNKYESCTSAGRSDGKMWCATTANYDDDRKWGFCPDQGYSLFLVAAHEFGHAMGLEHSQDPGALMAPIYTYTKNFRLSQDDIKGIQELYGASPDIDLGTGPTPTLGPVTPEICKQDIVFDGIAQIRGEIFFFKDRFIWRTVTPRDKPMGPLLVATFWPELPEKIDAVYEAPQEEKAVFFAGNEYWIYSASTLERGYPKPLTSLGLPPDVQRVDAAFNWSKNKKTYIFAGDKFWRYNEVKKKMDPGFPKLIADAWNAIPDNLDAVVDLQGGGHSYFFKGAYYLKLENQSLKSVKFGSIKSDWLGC

[15] = target: Matrix metalloproteinase-9 (Homo sapiens, UniProt P14780); assay: Inhibition of MMP9
Sequence of Matrix metalloproteinase-9 (P14780 whole entry): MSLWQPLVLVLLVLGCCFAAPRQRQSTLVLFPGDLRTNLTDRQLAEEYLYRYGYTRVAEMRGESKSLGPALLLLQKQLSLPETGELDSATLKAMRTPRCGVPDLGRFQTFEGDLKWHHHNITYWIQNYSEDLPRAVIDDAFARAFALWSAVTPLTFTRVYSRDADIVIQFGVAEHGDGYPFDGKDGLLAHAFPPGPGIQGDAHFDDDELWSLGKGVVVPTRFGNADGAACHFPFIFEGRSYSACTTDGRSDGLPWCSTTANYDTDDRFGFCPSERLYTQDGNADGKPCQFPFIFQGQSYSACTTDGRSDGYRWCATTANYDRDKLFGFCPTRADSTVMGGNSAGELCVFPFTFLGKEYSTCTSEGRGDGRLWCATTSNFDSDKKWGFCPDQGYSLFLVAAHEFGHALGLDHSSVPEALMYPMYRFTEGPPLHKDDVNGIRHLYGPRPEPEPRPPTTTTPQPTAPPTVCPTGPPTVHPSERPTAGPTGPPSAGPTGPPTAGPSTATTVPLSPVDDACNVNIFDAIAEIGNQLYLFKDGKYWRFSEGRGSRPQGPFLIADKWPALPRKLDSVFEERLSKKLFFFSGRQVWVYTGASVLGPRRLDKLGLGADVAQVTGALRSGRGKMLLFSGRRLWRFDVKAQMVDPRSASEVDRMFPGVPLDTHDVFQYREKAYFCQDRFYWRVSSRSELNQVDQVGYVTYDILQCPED

[16] = Antiinvasive activity against mouse Colon 26-L5 at >1 ug/ml by Matrigel assay; format: functional
[17] = Antiinvasive activity against mouse Colon 26-L5 assessed as inhibition of cell migration at >1 ug/ml after 6 hrs by Matrigel assay; format: functional

| SMILES | IC50 [6] [µg/mL] | IC50 [11] [µg/mL] | IC50 [13] [µg/mL] | IC50 [14] [nM] | IC50 [15] [nM] | IC50 [1] [µg/mL] | inhibition (INH) [2] [%] | IC50 [3] [µg/mL] | inhibition (INH) [4] [%] | inhibition (INH) [5] [%] | inhibition (INH) [7] [%] | IC50 [8] [µg/mL] | IC50 [9] [µg/mL] | cytotoxicity [10] [%] | IC50 [12] [µg/mL] | inhibition (INH) [16] [%] | inhibition (INH) [17] [%] |
| --- | --- | --- | --- | --- | --- | --- | --- | --- | --- | --- | --- | --- | --- | --- | --- | --- | --- |
| COc1cc(OC)c2c(c1)N(CCC(C)CCCC(C)CCCC(C)C)C(=O)c1cccc(OC)c1N2 (stereo not drawn) | 1 (≈ 1.96 µM) | 1 (≈ 1.96 µM) | – | – | – | > 10 | 8 | > 10 | 30 | 31 | 44 | > 10 | > 1 | 32 | – | – | – |
| CO[C@@H]1[C@H](OC(=O)/C=C/C=C/C=C/C=C/C(=O)O)CC[C@]2(CO2)[C@H]1[C@@]1(C)O[C@@H]1CC=C(C)C [FUMAGILLIN] | – | – | – | – | – | – | – | – | – | – | – | – | 0.034 (≈ 0.0741 µM) | – | 0.023 (≈ 0.0502 µM) | – | – |
| CC(=O)Oc1cc(OC(C)=O)c2c(c1)N(C/C=C(\C)CC/C=C(\C)CCC=C(C)C)C(=O)c1cccc(OC(C)=O)c1N2 | > 1 | > 1 | – | – | – | > 10 | – | 7.6 (≈ 12.9 µM) | 0 | 0 | 40 | > 10 | > 1 | 0 | – | 0 | – |

Now from value to molecule, other results behind:

| IC50 [6] [µg/mL] | IC50 [11] [µg/mL] | IC50 [13] [µg/mL] | IC50 [14] [nM] | IC50 [15] [nM] | SMILES | IC50 [1] [µg/mL] | inhibition (INH) [2] [%] | IC50 [3] [µg/mL] | inhibition (INH) [4] [%] | inhibition (INH) [5] [%] | inhibition (INH) [7] [%] | IC50 [8] [µg/mL] | IC50 [9] [µg/mL] | cytotoxicity [10] [%] | IC50 [12] [µg/mL] | inhibition (INH) [16] [%] | inhibition (INH) [17] [%] |
| --- | --- | --- | --- | --- | --- | --- | --- | --- | --- | --- | --- | --- | --- | --- | --- | --- | --- |
| 1 (≈ 2.16 µM) | 0.78 (≈ 1.69 µM) | 0.63 (≈ 1.36 µM) | 994 | 1300 | CC(C)=CCC/C(C)=C/CC/C(C)=C/CN1C(=O)c2cccc(O)c2Nc2c(O)cc(O)cc21 [DIAZEPINOMICIN] | 2 (≈ 4.32 µM) | – | 7.8 (≈ 16.9 µM) | – | – | – | 8.3 (≈ 17.9 µM) | 0.72 (≈ 1.56 µM) | – | 0.43 (≈ 0.93 µM) | – | – |
| 1 (≈ 1.98 µM) | 0.78 (≈ 1.55 µM) | 0.67 (≈ 1.33 µM) | – | – | COc1cc(OC)c2c(c1)N(C/C=C(\C)CC/C=C(\C)CCC=C(C)C)C(=O)c1cccc(OC)c1N2 | > 10 | 30 | > 10 | – | 40 | – | > 10 | 0.11 (≈ 0.218 µM) | 0 | 0.0076 (≈ 0.0151 µM) | – | – |
| > 1 | > 1 | > 1 | – | – | CC(C)CCCC(C)CCCC(C)CCN1C(=O)c2cccc(O)c2Nc2c(O)cc(O)cc21 (stereo not drawn) | > 10 | – | 10 (≈ 21.3 µM) | – | 0 | 40 | > 10 | 0.23 (≈ 0.491 µM) | 0 | 0.0024 (≈ 0.00512 µM) | 30 | 22 |
